Test results taken from PubChem BioAssay AID2060893 (Molecular Pharmacology Branch, DTP, NCI, 2025).

System: K86415-001-R-J1-PDC complex spheroids, viability
Assay: Anticancer human tumor K86415-001-R-J1-PDC patient-derived lung adenocarcinoma cell line growth inhibition [RAS]
Conditions: for IC50: curve of first compound; for viability, T/C: stronger effect = lower value
Method in brief: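 Multi-cell-type spheroids: tumor cells plus HUVEC endothelial cells and mesenchymal stem cells. RAS-pathway inhibitors were combined with targeted agents, each dosed in half-log steps down from clinical Cmax, or from 10 microM when Cmax was unknown.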

[1] = second compound 0.00316 µM, first compound 0.0316 µM
[2] = second compound 0.00316 µM, first compound 0.1 µM
[3] = second compound 0.00316 µM, first compound 0.316 µM
[4] = second compound 0.00316 µM, first compound 1 µM
[5] = second compound 0.00316 µM, first compound 3.16 µM
[6] = second compound 0.00316 µM, first compound 10 µM
[7] = second compound 0.01 µM, first compound 0.0316 µM
[8] = second compound 0.01 µM, first compound 0.1 µM
[9] = second compound 0.01 µM, first compound 0.316 µM
[10] = second compound 0.01 µM, first compound 1 µM
[11] = second compound 0.01 µM, first compound 3.16 µM
[12] = second compound 0.01 µM, first compound 10 µM
[13] = second compound 0.0316 µM, first compound 0.0316 µM
[14] = second compound 0.0316 µM, first compound 0.1 µM
[15] = second compound 0.0316 µM, first compound 0.316 µM
[16] = second compound 0.0316 µM, first compound 1 µM
[17] = second compound 0.0316 µM, first compound 3.16 µM
[18] = second compound 0.0316 µM, first compound 10 µM
[19] = second compound 0.1 µM, first compound 0.0316 µM
[20] = second compound 0.1 µM, first compound 0.1 µM
[21] = second compound 0.1 µM, first compound 0.316 µM
[22] = second compound 0.1 µM, first compound 1 µM
[23] = second compound 0.1 µM, first compound 3.16 µM
[24] = second compound 0.1 µM, first compound 10 µM
[25] = second compound 0.316 µM, first compound 0.0316 µM
[26] = second compound 0.316 µM, first compound 0.1 µM
[27] = second compound 0.316 µM, first compound 0.316 µM
[28] = second compound 0.316 µM, first compound 1 µM
[29] = second compound 0.316 µM, first compound 3.16 µM
[30] = second compound 0.316 µM, first compound 10 µM
[31] = second compound 1 µM, first compound 0.0316 µM
[32] = second compound 1 µM, first compound 0.1 µM
[33] = second compound 1 µM, first compound 0.316 µM
[34] = second compound 1 µM, first compound 1 µM
[35] = second compound 1 µM, first compound 3.16 µM
[36] = second compound 1 µM, first compound 10 µM
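Note: spheroids exposed to agents for seven days before readout.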

In the case of `CC1(O)CCCC1n1c(=O)c(C(F)F)cc2cnc(NC3CCN(S(C)(=O)=O)CC3)nc21` (centres undefined) + C=CC(=O)N1CCN(c2nc(OCC3CCCN3C)nc3c(F)c(-c4nc(N)cc(C)c4C(F)(F)F)c(Cl)cc23)C(C)C1, the IC50 (second compound 0.00316 µM) is reported as less than 31.6 nM, the IC50 (second compound 0.01 µM) is reported as less than 31.6 nM and the IC50 (second compound 0.0316 µM) is reported as less than 31.6 nM. For the same compound, the IC50 (second compound 0.1 µM) was less than 31.6 nM, the IC50 (second compound 0.316 µM) was less than 31.6 nM and the IC50 (second compound 1 µM) was less than 31.6 nM. It also gave a viability, T/C [1] of 14.8%, a viability, T/C [2] of 16.9% and a viability, T/C [3] of 17.3%. For the same compound, the viability, T/C [4] was 20.2%, the viability, T/C [5] was 28.1% and the viability, T/C [6] was 5.41%. The viability, T/C [7] was 13.1%, the viability, T/C [8] was 12.6% and the viability, T/C [9] was 12.4%. For the same compound, the viability, T/C [10] was 12.3%, the viability, T/C [11] was 18.6% and the viability, T/C [12] was 5.34%. It also gave a viability, T/C [13] of 12.2%, a viability, T/C [14] of 10.1% and a viability, T/C [15] of 10.1%. For the same compound, the viability, T/C [16] was 14.8%, the viability, T/C [17] was 16.2% and the viability, T/C [18] was 4.92%. It also gave a viability, T/C [19] of 12.1%, a viability, T/C [20] of 10.8% and a viability, T/C [21] of 10.5%. For the same compound, the viability, T/C [22] was 11.5%, the viability, T/C [23] was 19.4% and the viability, T/C [24] was 4.11%. For the same compound, the viability, T/C [25] was 11.4%, the viability, T/C [26] was 11.6% and the viability, T/C [27] was 11.4%. The viability, T/C [28] was 11.4%, the viability, T/C [29] was 16.2% and the viability, T/C [30] was 5.89%. The viability, T/C [31] was 10.4%, the viability, T/C [32] was 10.3% and the viability, T/C [33] was 13.7%. It also gave a viability, T/C [34] of 14.7%, a viability, T/C [35] of 18.9% and a viability, T/C [36] of 5.93%.
Work on `CCC(CC)c1cc(NC2CCC(N)C2)n2nccc2n1` (centres undefined) + C=CC(=O)N1CCN(c2nc(OCC3CCCN3C)nc3c(F)c(-c4nc(N)cc(C)c4C(F)(F)F)c(Cl)cc23)C(C)C1 yielded an IC50 (second compound 0.00316 µM) of less than 31.6 nM, an IC50 (second compound 0.01 µM) of less than 31.6 nM and an IC50 (second compound 0.0316 µM) of less than 31.6 nM. The IC50 (second compound 0.1 µM) was less than 31.6 nM, the IC50 (second compound 0.316 µM) was less than 31.6 nM and the IC50 (second compound 1 µM) was less than 31.6 nM. The viability, T/C [1] was 21.7%, the viability, T/C [2] was 20.9% and the viability, T/C [3] was 26.4%. For the same compound, the viability, T/C [4] was 45.6%, the viability, T/C [5] was 2.88% and the viability, T/C [6] was 3.26%. For the same compound, the viability, T/C [7] was 13.3%, the viability, T/C [8] was 12.7% and the viability, T/C [9] was 16.9%. The viability, T/C [10] was 23.3%, the viability, T/C [11] was 2.98% and the viability, T/C [12] was 2.44%. The viability, T/C [13] was 10.7%, the viability, T/C [14] was 13.9% and the viability, T/C [15] was 11.7%. It also gave a viability, T/C [16] of 15.9%, a viability, T/C [17] of 3.17% and a viability, T/C [18] of 2.7%. The viability, T/C [19] was 10.3%, the viability, T/C [20] was 12% and the viability, T/C [21] was 12.8%. The viability, T/C [22] was 13.7%, the viability, T/C [23] was 3.12% and the viability, T/C [24] was 2.45%. For the same compound, the viability, T/C [25] was 11.8%, the viability, T/C [26] was 14% and the viability, T/C [27] was 12%. The viability, T/C [28] was 17.7%, the viability, T/C [29] was 2.62% and the viability, T/C [30] was 3.41%. For the same compound, the viability, T/C [31] was 10.5%, the viability, T/C [32] was 13.1% and the viability, T/C [33] was 15.1%. The viability, T/C [34] was 14.7%, the viability, T/C [35] was 3.95% and the viability, T/C [36] was 4.47%.
